Source: patent US4174406A, “Terpenylaminoalkanol fish toxicants” (priority 1977, dated 1979)
Values after ≈ are worked out from the molar mass of the structure shown.

How the values were obtained:
[1] = tested on: Walleye; test: Outdoor plastic pool test (Table 3); format: in vivo, Sitzostedion vitreum; conditions: for % kill: 96 hour, 50% formulation (hydrochloride salt)
Protocol: (§1) N-(2-hydroxyethyl) digeranylamine was tested as a selective fish toxicant in outdoor pools stocked with various fish species and lined with black plastic using 50% water soluble formulations (hydrochloride salt). The formulation was added to each of four pools of 4,000-liter capacity at concentrations of 0.10, 0.15, 0.20, and 0.30 mg/liter. Another pool containing the same number, size, and species of fish served as a control. The test water had algal blooms, a pH of about 8.5, and a total hardness of about 200 mg/liter as CaCo3. The temperature was cool enough (15°-16°C.) to permit the use of trout.
(§2) Fish were obtained from state and federal hatcheries and maintained prior to testing by a trained fish culturist. Fish of total length 2-5 cm were used in laboratory tests while for outdoor tests small fish (4-6 cm in length) and larger carp and buffalo (Ictiobus cyprinellus) were used.
(§3) In all tests 10 fish of each were exposed to selective concentrations of the toxicant. Mortalities were observed and recorded at 1,2 and 6 hours on the first day and once daily thereafter, during 96 hour exposure.
(§4) Outdoor pool tests were conducted using 50% formulation of the toxicant N-(2-hydroxyethyl) digeranylamine as indicated in Example 8. […] If selective control of white sucker and common carp is desired in an environment which includes rainbow trout, one should employ an effective concentration of toxicant which is at least as great as 0.05 mg/liter but less than 0.1 mg/liter. As a practical fishery practice in the northern United States and Canada, rainbow trout are not usually stocked in bodies of water containing the common carp species; the habitat conditions including water temperature and available oxygen of these species are usually quite different. Common carp and rainbow trout have quite different oxygen and temperature requirements and these differences generally preclude both species cohabitating under natural conditions. In this case the useful range to control common carp and white sucker can be much broader, i.e. 0.1 to 0.3 mg/liter.

[2] = tested on: Black bullhead; test: Outdoor plastic pool test (Table 3); format: in vivo, Ictalurus melas; conditions: for % kill: 96 hour, 50% formulation (hydrochloride salt)
Protocol: as §1, §2, §3, §4

[3] = tested on: bluegill; test: Toxicity to bluegill in waters of different hardness; format: in vivo, bluegill (Lepomis macrochirus)
Protocol: The selective toxicant, N-(2-hydroxyethyl)digeranylamine was evaluated against bluegill in waters of hardness of 12, 44, 170, and 300 p.p.m., total hardness as CaCo3. […] In contrast the specific aminoalkanols of this invention are selective to carp (Caprinus carpio) and effective in waters of high pH.

[4] = tested on: Fingernail clam; test: Static bioassay in invertebrates (Table 2); format: in vivo, Sphaerium sp.; conditions: 96 hours, tech, 17 C, limed spring water 22-36 mg/l hardness
Protocol: The effect of the various toxicants on common invertebrate species was determined in a static test conducted 17° C. The invertebrates tested were collected from natural populations or purchased from commercial suppliers. They were held in soft water in fiberglass tanks in the laboratory or in outdoor plastic swimming pools. Mortality was observed during holding, and only healthy organisms were used for the toxicity tests. At least 10 organisms of nine species were exposed to each concentration in static tests.

[5] = tested on: Grass carp; test: Outdoor plastic pool test (Table 3); format: in vivo, Ctenopharyngodon idella; conditions: for % kill: 96 hour, 50% formulation (hydrochloride salt)
Protocol: as §1, §2, §3, §4

[6] = tested on: Bluegill; test: Outdoor plastic pool test (Table 3); format: in vivo, Lepomis macrochirus; conditions: for % kill: 96 hour, 50% formulation (hydrochloride salt)
Protocol: as §1, §2, §3, §4

[7] = tested on: Rainbow trout; test: Outdoor plastic pool test (Table 3); format: in vivo, Salmo gairdneri; conditions: 96 hour; for % kill: 50% formulation (hydrochloride salt)
Protocol: as §1, §2, §3, §4

[8] = tested on: Goldfish; test: Outdoor plastic pool test (Table 3); format: in vivo, Carassius auratus; conditions: for % kill: 96 hour, 50% formulation (hydrochloride salt)
Protocol: as §1, §2, §3, §4

[9] = tested on: Walleye; test: Laboratory fish toxicity test (Table 1); format: in vivo, Stizostedion vitreum; conditions: tech, 12 C, soft water
Protocol: as §2, §3
Laboratory tests were also conducted in soft water 12° C. wherein the toxicant was evaluated against fifteen species of fish including both cold and warm water varieties. In Table 1, the LC 50 toxicity values for N-(2-hydroxyethyl) digeranylamine is shown for various species. LC50 is defined as the amount (mg/liter) of toxicant required to kill 50 percent of the particular fish species at 95% confidence interval.

## CC(C)=CCC/C(C)=C/CN(C/C=C(\C)CCC=C(C)C)CCO [N-(2-hydroxyethyl) digeranylamine]
[1]; 0.10 mg/l
  % kill: 0%
[1]; 0.15 mg/l
  % kill: 10%
[1]; 0.20 mg/l
  % kill: 0%
[1]; 0.30 mg/l
  % kill: 0%
[1]; walleye, 0.3 mg/liter, 50% formulation
  survival (in words): complete survival
[2]; 0.10 mg/l
  % kill: 0%
[2]; 0.15 mg/l
  % kill: 0%
[2]; 0.20 mg/l
  % kill: 0%
[2]; 0.30 mg/l
  % kill: 0%
[2]; black bullhead, 0.3 mg/liter, 50% formulation
  survival (in words): complete survival
[3]; total hardness 12 p.p.m. as CaCo3
  96-hour LC50: 0.84 mg/L
[3]; total hardness 44 p.p.m. as CaCo3
  96-hour LC50: 0.72 mg/L
[3]; total hardness 170 p.p.m. as CaCo3
  96-hour LC50: 0.46 mg/L
[3]; total hardness 300 p.p.m. as CaCo3
  96-hour LC50: 0.33 mg/L
[4]
  LC50: 11.5 mg/L (≈ 34.5 µM)
[5]; 0.10 mg/l
  % kill: 0%
[5]; 0.15 mg/l
  % kill: 0%
[5]; 0.20 mg/l
  % kill: 0%
[5]; 0.30 mg/l
  % kill: 0%
[5]; grass carp, 0.3 mg/liter, 50% formulation
  survival (in words): complete survival
[6]; 0.10 mg/l
  % kill: 0%
[6]; 0.15 mg/l
  % kill: 0%
[6]; 0.20 mg/l
  % kill: 0%
[6]; 0.30 mg/l
  % kill: 0%
[6]; bluegill, 0.3 mg/liter, 50% formulation
  survival (in words): complete survival
[7]; 0.10 mg/l
  % kill: 100%
[7]; 0.15 mg/l
  % kill: 100%
[7]; 0.20 mg/l
  % kill: 100%
[7]; 0.30 mg/l
  % kill: 100%
[7]; above 0.10 mg/l, 50% formulation
  kill (in words): completely eliminated at all concentrations above 0.10 mg/l
[8]; 0.10 mg/l
  % kill: 0%
[8]; 0.15 mg/l
  % kill: 0%
[8]; 0.20 mg/l
  % kill: 0%
[8]; 0.30 mg/l
  % kill: 0%
[8]; goldfish, 0.3 mg/liter, 50% formulation
  survival (in words): complete survival
[9]; 3 hours
  LC50: 2.78 mg/L (≈ 8.33 µM)
[9]; 6 hours
  LC50: 1.03 mg/L (≈ 3.09 µM)
[9]; 24 hours
  LC50: 0.346 mg/L (≈ 1.04 µM)
[9]; 96 hours
  LC50: 0.239 mg/L (≈ 0.717 µM)
